Tests used:
[1] = biological target: T1, carboxylic acid reductase (aryl aldehyde oxidoreductase) (Nocardia iowensis, UniProt Q6RKB1); assay: Substrate specificity of crude carboxylic acid reductase (100,000×g supernatant); assay type: biochemical, Nocardia sp. NRRL 5646; set-up: Crude enzyme preparations consisting of 100,000×g supernatants were used in this study; endogenous in cells; host or cells: Nocardia sp; NRRL 5646, crude 100,000×g supernatant; conditions: for Relative Activity: 5 mM substrate, 0.15 mM NADPH, 1 mM ATP, 50 mM Tris-HCl pH 7.5, percentage of the initial rate of benzoate reduction; for quality as substrate of the enzyme (in words): substrates of Table 2
Experimental: (§1) Enzyme assay. The standard aryl-aldehyde oxidoreductase assay solution contained 0.15 mM […], 1 mM ATP, and 5 mM sodium benzoate, 10 mM MgCl2 and 0.01 to 0.3 units of enzyme in 50 mM Tris-HCl buffer in a final volume of 0.7 ml. The reference cuvette contained all components except for benzoate. Enzyme reactions were initiated by adding enzyme, and they were monitored by recording the absorption decrease at 340 nm at 25° C. with a Shimadzu 160 spectrophotometer.
Crude enzyme preparations consisting of 100,000×g supernatants were used in this study. […] The relative rate of reduction for each carboxylic acid derivative is expressed as the percentage of the initial rate of benzoate reduction.
The range of oxidoreductase activities of crude, 100,000×g Nocardia extract with a variety of substrates was investigated. Various substituted 2-, 3- and 4-substituted benzoates were examined, including a range of ring-activating and ring-deactivating functional groups. Benzoates substituted with halogens, methyl, methoxy, hydroxy, acetyl, nitro, benzoyl, phenyl, and phenoxyl groups as well as aryl-ring systems containing two (naphthalene) and three (fluorene) rings, and heterocyclic aromatic acids including furoic, nicotinic and indole carboxylic acids were considered. In addition, one cinnamic acid derivative, phenyl-acetate, phenyl-malonate, phenyl-succinate and 2-phenylpropionic acid were studied.

[2] = biological target: T1, carboxylic acid reductase (aryl aldehyde oxidoreductase); assay: Kinetic properties of the purified carboxylic acid reductase (standard enzyme assay); conditions: for apparent Km relative to Km reported for the enzyme from Nocardia asteroides: higher than values reported by Kato et al.; for turn-over number: calculated assuming pure enzyme and one active site per molecule; for Vmax: mean of three determinations; for type of inhibition: versus benzoic acid
Experimental: as §1
Kinetic constants were obtained by fitting experimental data with the EZ-FIT program developed by Perrella (Perrella, Anal. Biochem. 174:437-447 (1987)).
S(+)-α-Methyl-4-[2-methylpropyl]-benzeneacetic acid (ibuprofen) was from Aldrich Chemical Co. R(-) isomer of ibuprofen was a gift from Dr. Ching-Shih Chen, University of Rhode Island (Chen et al., Biochim. Biophys. Acta 1033:1-6 (1990)). […] Substrate enantiopurities were checked by specific rotation determination for each isomer (Chen and Rosazza, Appl. Environ. Microbiol. 60(4):1292-1296 (1994)).

[3] = biological target: T2, carboxylic acid reductase (Nocardia iowensis, UniProt Q6RKB1); assay: Enzymatic reduction of vanillic acid to vanillin by purified carboxylic acid reductase; assay type: biochemical, Nocardia sp. NRRL 5646; conditions: UV spectrophotometric assay at 340 nm; 30° C., 24 hours
T2 construct: isolated and substantially purified from Nocardia sp. strain NRRL 5646; endogenous in cells; host or cells: Nocardia sp; NRRL 5646, benzoate-induced culture; enzyme purified by Mono-Q, Reactive Green 19 agarose and hydroxyapatite chromatography
Experimental: The reaction mixture was incubated at 30° C. with gentle shaking for 24 hours, after which the entire reaction mixture was loaded onto a solid phase extraction cartridge (Chem Elut 1200, 200 ml aqueous solution capacity). After 5 min. of equilibration, the cartridge was washed with 2×100 ml of hexane, then washed again with 2×100 ml of dichloromethane (concentrated to less than 2 ml).
The extract was then transferred to a vial and the solvent was removed with a stream of nitrogen to give about 8 mg of the purified vanillin end product.
Mass spectrometry, ^1 H, and ^13 C NMR data confirmed that this compound was vanillin. The yield was determined to be 96% with UV spectrophotometric assay at 340 nm.

T1 sequence (Q6RKB1 whole entry): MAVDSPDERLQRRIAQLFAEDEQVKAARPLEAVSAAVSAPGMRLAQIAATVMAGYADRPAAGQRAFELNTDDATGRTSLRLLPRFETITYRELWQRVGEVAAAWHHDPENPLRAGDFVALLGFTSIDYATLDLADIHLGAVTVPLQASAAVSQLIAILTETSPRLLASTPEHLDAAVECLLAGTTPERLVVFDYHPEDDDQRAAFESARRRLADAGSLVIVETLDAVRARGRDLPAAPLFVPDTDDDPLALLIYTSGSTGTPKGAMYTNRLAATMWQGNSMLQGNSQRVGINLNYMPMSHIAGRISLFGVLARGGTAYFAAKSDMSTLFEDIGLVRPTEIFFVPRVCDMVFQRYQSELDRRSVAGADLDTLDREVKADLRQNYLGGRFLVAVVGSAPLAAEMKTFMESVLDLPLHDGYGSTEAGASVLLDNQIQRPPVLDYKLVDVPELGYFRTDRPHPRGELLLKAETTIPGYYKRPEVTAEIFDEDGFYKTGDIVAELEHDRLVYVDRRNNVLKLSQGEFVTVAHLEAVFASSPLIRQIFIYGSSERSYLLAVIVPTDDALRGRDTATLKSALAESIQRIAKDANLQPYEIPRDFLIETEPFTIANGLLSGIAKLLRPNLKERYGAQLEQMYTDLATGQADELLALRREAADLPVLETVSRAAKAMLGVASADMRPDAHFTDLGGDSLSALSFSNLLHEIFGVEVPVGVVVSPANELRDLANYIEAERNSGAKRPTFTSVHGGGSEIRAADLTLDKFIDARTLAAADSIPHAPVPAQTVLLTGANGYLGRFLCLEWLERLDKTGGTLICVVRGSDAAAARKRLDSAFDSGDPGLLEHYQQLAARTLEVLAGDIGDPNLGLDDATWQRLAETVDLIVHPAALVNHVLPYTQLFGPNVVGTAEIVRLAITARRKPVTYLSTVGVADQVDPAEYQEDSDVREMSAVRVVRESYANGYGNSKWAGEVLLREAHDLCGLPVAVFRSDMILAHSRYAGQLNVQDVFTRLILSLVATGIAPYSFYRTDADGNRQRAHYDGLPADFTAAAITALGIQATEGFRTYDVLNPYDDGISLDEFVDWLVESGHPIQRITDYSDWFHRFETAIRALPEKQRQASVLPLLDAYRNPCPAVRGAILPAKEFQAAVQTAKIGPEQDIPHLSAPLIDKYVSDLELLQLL
T2 sequence (Q6RKB1 whole entry): as above

## O=C(O)c1cccc2ccccc12 [1-naphthoic acid]
[1]
  Relative Activity: 77 percentage

## CC(=O)c1ccccc1C(=O)O [2-acetyl-benzoic acid]
[1]
  Relative Activity: 4 percentage

## CC(=O)Nc1ccccc1C(=O)O [2-acetylamino-benzoic acid]
[1]
  Relative Activity: 0 percentage

## COc1ccccc1C(=O)O [2-anisic acid]
[1]
  Relative Activity: 3 percentage

## O=C(O)c1ccccc1C(=O)c1ccccc1 [2-benzoyl-benzoic acid]
[1]
  Relative Activity: 0 percentage

## O=C(O)c1ccccc1Br [2-bromo-benzoic acid]
[1]
  Relative Activity: 5 percentage

## O=C(O)c1ccccc1Cl [2-chloro-benzoic acid]
[1]
  Relative Activity: 3 percentage

## O=C(O)c1ccccc1F [2-fluoro-benzoic acid]
[1]
  Relative Activity: 57 percentage

## O=C(O)c1ccco1 [2-furoic acid]
[1]
  Relative Activity: 18 percentage

## O=C(O)c1ccccc1O [2-hydroxyl-benzoic acid]
[1]
  Relative Activity: 0 percentage

## O=C(O)c1ccc2ccccc2c1 [2-naphthoic acid]
[1]
  Relative Activity: 95 percentage
  quality as substrate of the enzyme (in words): best substrates

## O=C(O)c1ccccc1[N+](=O)[O-] [2-nitro-benzoic acid]
[1]
  Relative Activity: 0 percentage

## CC(C(=O)O)c1ccccc1 (stereo not shown) [2-phenyl propionic acid]
[1]
  Relative Activity: 16 percentage
  quality as substrate of the enzyme (in words): slower rates than benzoate

## O=C(O)c1ccccc1-c1ccccc1 [2-phenyl-benzoic acid]
[1]
  Relative Activity: 16 percentage

## Cc1ccccc1C(=O)O [2-toluic acid]
[1]
  Relative Activity: 6 percentage

## COc1cccc(C(=O)O)c1 [3-anisic acid]
[1]
  Relative Activity: 87 percentage
  quality as substrate of the enzyme (in words): best substrates

## O=C(O)c1cccc(C(=O)c2ccccc2)c1 [3-benzoyl-benzoic acid]
[1]
  Relative Activity: 53 percentage

## O=C(O)c1cccc(Br)c1 [3-bromo-benzoic acid]
[1]
  Relative Activity: 105 percentage
  quality as substrate of the enzyme (in words): best substrates

## O=C(O)c1cccc(Cl)c1 [3-chloro-benzoic acid]
[1]
  Relative Activity: 124 percentage
  quality as substrate of the enzyme (in words): best substrates

## O=C(O)c1cccc(F)c1 [3-fluoro-benzoic acid]
[1]
  Relative Activity: 78 percentage

## O=C(O)c1ccoc1 [3-furoic acid]
[1]
  Relative Activity: 22 percentage

## O=C(O)c1cccc(O)c1 [3-hydroxyl-benzoic acid]
[1]
  Relative Activity: 77 percentage

## COc1cccc(C=CC(=O)O)c1 [3-methoxy-cinnamic acid]
[1]
  Relative Activity: 8 percentage

## O=C(O)c1cccc([N+](=O)[O-])c1 [3-nitro-benzoic acid]
[1]
  Relative Activity: 0 percentage

## Cc1cccc(C(=O)O)c1 [3-toluic acid]
[1]
  Relative Activity: 4 percentage

## CC(=O)c1ccc(C(=O)O)cc1 [4-acetyl-benzoic acid]
[1]
  Relative Activity: 20 percentage

## CC(=O)Nc1ccc(C(=O)O)cc1 [4-acetylamino-benzoic acid]
[1]
  Relative Activity: 22 percentage

## COc1ccc(C(=O)O)cc1 [4-anisic acid]
[1]
  Relative Activity: 36 percentage

## O=C(O)c1ccc(C(=O)c2ccccc2)cc1 [4-benzoyl-benzoic acid]
[1]
  Relative Activity: 6 percentage

## O=C(O)c1ccc(Br)cc1 [4-bromo-benzoic acid]
[1]
  Relative Activity: 72 percentage

## O=C(O)c1ccc(F)cc1 [4-fluoro-benzoic acid]
[1]
  Relative Activity: 94 percentage
  quality as substrate of the enzyme (in words): best substrates

## O=C(O)c1ccc(O)cc1 [4-hydroxyl-benzoic acid]
[1]
  Relative Activity: 6 percentage

## O=C(O)c1ccc([N+](=O)[O-])cc1 [4-nitro-benzoic acid]
[1]
  Relative Activity: 0 percentage

## O=C(O)c1ccc(Oc2ccccc2)cc1 [4-phenoxy-benzoic acid]
[1]
  Relative Activity: 11 percentage

## O=C(O)c1ccc(-c2ccccc2)cc1 [4-phenyl-benzoic acid]
[1]
  Relative Activity: 21 percentage

## Cc1ccc(C(=O)O)cc1 [4-toluic acid]
[1]
  Relative Activity: 82 percentage
  quality as substrate of the enzyme (in words): best substrates

## Nc1ncnc2c1ncn2[C@@H]1O[C@H](COP(=O)(O)OP(=O)(O)OP(=O)(O)O)[C@@H](O)[C@H]1O [ATP]
[2]
  apparent Km relative to Km reported for the enzyme from Nocardia asteroides: more than 1000 fold

## NC(=O)C1=CN([C@@H]2O[C@H](COP(=O)(O)OP(=O)(O)OC[C@H]3O[C@@H](n4cnc5c(N)ncnc54)[C@H](OP(=O)(O)O)[C@@H]3O)[C@@H](O)[C@H]2O)C=CC1 [NADPH]
[2]
  apparent Km relative to Km reported for the enzyme from Nocardia asteroides: more than 1000 fold

## CC(C)Cc1ccc([C@@H](C)C(=O)O)cc1 [R(-)-ibuprofen]
[2]
  turn-over number: 21 min⁻¹
[2]; purified enzyme, listed as R(-) isomer
  Vmax: 1.33+0.02 μmol/min/mg of protein
[2]; purified enzyme, listed as R-(-)
  Vmax: 0.15 μmol/min/mg of protein

## CC(C)Cc1ccc([C@H](C)C(=O)O)cc1 [S(+)-ibuprofen, S(+)-α-Methyl-4-[2-methylpropyl]-benzeneacetic acid]
[2]
  turn-over number: 186 min⁻¹
[2]; purified enzyme, listed as S(+) isomer
  Vmax: 0.148±0.003 μmol/min/mg of protein
[2]; purified enzyme, listed as S-(+)
  Vmax: 1.33 μmol/min/mg of protein

## Nc1ccccc1C(=O)O [anthranilic acid, 2-amino benzoic acid]
[2]
  Ki: 261 ± 30 µM
[2]; 5 mM in the enzyme assay solution
  NADPH oxidation with the compound in place of benzoic acid: no NADPH oxidation was observed
[2]; listed as 2-amino benzoic acid
  type of inhibition: typical competitive inhibitor
[2]; listed as Anthranilic acid
  type of inhibition: competitive inhibitor

## O=Cc1ccccc1 [benzaldehyde]
[2]; purified enzyme
  reduction of benzaldehyde to benzyl alcohol: did not reduce

## O=C(O)c1cccc2c1Cc1ccccc1-2 [fluorene-1-carboxylic acid]
[1]
  Relative Activity: 17 percentage

## O=C(O)c1cc2ccccc2[nH]1 [indole-2-carboxylic acid]
[1]
  Relative Activity: 0 percentage

## O=C(O)c1c[nH]c2ccccc12 [indole-3-carboxylic acid]
[1]
  Relative Activity: 2 percentage

## O=C(O)c1cccc2[nH]ccc12 [indole-4-carboxylic acid]
[1]
  Relative Activity: 0 percentage

## O=C(O)c1ccc2[nH]ccc2c1 [indole-5-carboxylic acid]
[1]
  Relative Activity: 10 percentage

## O=C(O)c1cccnc1 [nicotinic acid]
[1]
  Relative Activity: 5 percentage
  quality as substrate of the enzyme (in words): slower rates than benzoate

## O=C(O)Cc1ccccc1 [phenyl acetic acid]
[1]
  Relative Activity: 43 percentage
  quality as substrate of the enzyme (in words): slower rates than benzoate

## O=C(O)C(C(=O)O)c1ccccc1 [phenyl malonic acid]
[1]
  Relative Activity: 3 percentage
  quality as substrate of the enzyme (in words): slower rates than benzoate

## O=C(O)CC(C(=O)O)c1ccccc1 (stereo not shown) [phenyl succinic acid]
[1]
  Relative Activity: 11 percentage
  quality as substrate of the enzyme (in words): slower rates than benzoate

## COc1cc(C=O)ccc1O [vanillin, 4-hydroxy-3-methoxy-benzaldehyde]
[3]
  yield of vanillin: 96%

Reference: patent publication US6261814A, “Carboxylic acid reductase, and methods of using same” (University of Iowa Research Foundation, priority 1998, dated 2001)
